# Test system: CPP32
# Experiment: Apaf-2 activity: recombining with phosphocellulose flow through fraction (Apaf-1) and 35S-labeled CPP32
# Assay type: biochemical, human
# Conditions: phosphocellulose fraction alone, with or without 1 mM dATP
# Procedure: FIG. 3 illustrates fractionation and reconstitution of dATP-dependent activation of CPP32 by phosphocellulose chromatography. HeLa cell S-100 was subjected to phosphocellulose chromatography and the column flow through and bound material were collected as described in the Examples. Aliquots (10 μl) of HeLa S-100 (50 μg) (lanes 1 and 2), phosphocellulose flow through fraction (PC-FT) (lanes 3 and 4), phosphocellulose bound fraction (PC-B) (lanes 5 and 6), and the mixture of phosphocellulose flow through and bound material (lanes 7 and 8) were incubated with aliquots of 3 μl in vitro translated, ^35S-labeled CPP32 at 30° C. for 1 hr in the absence (lanes 1,3,5,7) or presence (lanes 2,4,6,8) of 1 mM dATP. The samples were subjected to SDS-PAGE, transferred to a nitrocellulose filter, and the filter was exposed to film for 16 hours at room temperature.
# The Apaf-2 activity that bound to the phosphocellulose column was purified through the Mono S column as described in Example 7. […] In FIG. 4B, aliquots (30 μl) of the Mono-S fractions were subjected to 15% SDS-PAGE and the proteins were visualized by silver staining.
# Aliquots of 0.2 μg of Apaf-2 purified through the Mono S column (lanes 1, 2), cytochrome c from bovine heart (lanes 3, 4), and rat liver (lanes 5, 6) were incubated with aliquots of 10 μl phosphocellulose flowthrough fraction and 3 μl in vitro translated, 35S-labeled CPP32 at 30° C. for 1 hr in a final volume of 20 μl buffer A in the absence (lanes 1,3,5) or presence of (lanes 2, 4, 6) 1 mM dATP. Samples were subjected to SDS-PAGE and transferred to a nitrocellulose filter which was then exposed to a film for 16 hr at room temperature.
# To isolate the protein(s) required for the activation of CPP32, HeLa S-100 was loaded onto a phosphocellulose column, and the flow-through and bound fractions were collected. […] When the flowthrough and bound fractions were mixed, CPP32-activating activity was restored (lanes 7-8). […] The factor(s) that flow through the phosphocellulose column are designated apoptotic protease activating factor-1 (Apaf-1) and the factor that bound to the column is designated apoptotic protease activating factor-2 (Apaf-2). It is understood that “Apaf-1” may represent more than one protein or it may represent a combination of protein(s) and other factors.
# Apaf-2 activity was assayed by recombining with Apaf-1 after purification by the following steps. First, the Apaf-2 fraction was subjected to 50% ammonium sulfate precipitation. All of the activity remained in the supernatant while most of the protein precipitated (Table I). The supernatant was loaded onto a phenyl-sepharose (hydrophobic interaction) column and the activity was eluted with 1 M ammonium sulfate. The eluate was passed through a gel filtration column; active fractions were subjected to sequential Mono Q (anion exchange) and Mono S (cation exchange) chromatography. The Apaf-2 activity flowed through the Mono Q column, and the flow through was directly loaded onto the Mono S column. Bound Apaf-2 activity was then eluted with a 100-300 mM NaCl linear salt gradient. The fractions from the Mono S column were collected and assayed. […] The active fractions were analyzed by SDS-PAGE (FIG. 4B). A protein of apparent molecular mass of 15 kDa was co-eluted with the activity. No other proteins were detected by silver staining in the active Apaf-2 fractions.
# CPP32 was translated and purified as described above. […]
substance,measurement,value
"Apaf-2: 15 kDa factor bound to phosphocellulose column, purified from HeLa S-100, identified as human cytochrome c",dATP-dependent activation of CPP32 by fraction alone,Neither fraction alone supported dATP-dependent activation of CPP32
